Test results as given in publication PMC12260505, “First-in-Human Phase I/IIa Study of the First-in-Class CDK2/4/6 Inhibitor PF-06873600 Alone or with Endocrine Therapy in Patients with Breast Cancer” (Clinical Cancer Research, 2025).
Values joined by “and” are separate entries in the source; they are usually repeats but may differ in a detail not shown here. Equal entries are not always repeated.

Assay: Plasma PF-06873600 pharmacokinetics (LC/MS-MS, noncompartmental analysis)
Assay type: in vivo, human
Experimental: Plasma samples were analyzed for PF-06873600 concentrations at Q2 Solutions using a validated analytic assay in compliance with Pfizer standard operating procedures. PF-06873600 samples were assayed by a validated LC/MS-MS using positive ionization mode. PK parameters were calculated using noncompartmental analysis of plasma concentration–time data.

[1] = 25 mg twice daily, after multiple dosing
[2] = Cycle 1 Day 1, Part 1 25 mg BID IR (pooled cohorts)
[3] = Cycle 1 Day 1, Part 1A 1 mg BID IR
[4] = Cycle 1 Day 1, Part 1A 2 mg BID IR
[5] = Cycle 1 Day 1, Part 1A 5 mg BID IR
[6] = Cycle 1 Day 1, Part 1A 10 mg BID IR
[7] = Cycle 1 Day 1, Part 1A 25 mg BID Biomarker IR
[8] = Cycle 1 Day 1, Part 1A 25 mg BID IR
[9] = Cycle 1 Day 1, Part 1A 35 mg BID IR
[10] = Cycle 1 Day 1, Part 1A 35 mg BID Intm 5/2 IR
[11] = Cycle 1 Day 1, Part 1A 50 mg BID IR
[12] = Cycle 1 Day 1, Part 1B 25 mg BID +Ful IR
[13] = Cycle 1 Day 1, Part 1B 25 mg BID +Let IR
[14] = Cycle 1 Day 1, Part 1C MR 20 mg lead-in IR 25 mg BID
[15] = Cycle 1 Day 1, Part 1C MR 30 mg BID long duration
[16] = Cycle 1 Day 15, Part 1 25 mg BID IR (pooled cohorts)
[17] = Cycle 1 Day 15, Part 1A 1 mg BID IR

## C[C@@]1(O)CCC[C@H]1n1c(=O)c(C(F)F)cc2cnc(NC3CCN(S(C)(=O)=O)CC3)nc21 [PF-06873600]
[1]
  Geometric mean coefficient of variation percentage, AUCtau: 45%
  Geometric mean coefficient of variation percentage, Cmax: 43%
  Geometric mean coefficient of variation percentage, Cmin: 119%
25 mg twice daily, single dose
  Geometric mean coefficient of variation percentage, AUCinf: 58%
  Geometric mean coefficient of variation percentage, Cmax: 56%
[2]
  AUCinf, geometric mean (%CV): 1019 (58) ng.h/mL
  AUClast, geometric mean (%CV): 912.4 (52) ng.h/mL
  CL/F, geometric mean (%CV): 24.55 (58) L/h
  Cmax, geometric mean (%CV): 194 ng/mL
  Tmax, median (range): 2.00 h
  Vz/F, geometric mean (%CV): 85.26 (52) L
  t1/2, arithmetic mean±standard deviation: 2.444 ± 0.4523 h
[3]
  AUCinf, individual value(s): 21.0 ng·h/mL
  AUClast, individual value(s): 18.3 ng·h/mL
  CL/F, individual value(s): 47.6 L/h
  Cmax, individual value(s): 5.39 ng/mL
  Tmax, median (range): 2.17 h
  Vz/F, individual value(s): 111 L
  t1/2, individual value(s): 5800 s
[4]
  AUCinf, individual value(s): 45.2 ng·h/mL
  AUClast, individual value(s): 39.2 ng·h/mL and 58.3 ng·h/mL
  CL/F, individual value(s): 44.2 L/h
  Tmax, median (range): 1.25 h
  Vz/F, individual value(s): 116 L
  t1/2, individual value(s): 6550 s
[5]
  AUCinf, individual value(s): 101 ng·h/mL
  AUClast, individual value(s): 96.6 ng·h/mL and 442 ng·h/mL
  CL/F, individual value(s): 49.7 L/h
  Tmax, median (range): 2.02 h
  Vz/F, individual value(s): 141 L
  t1/2, individual value(s): 7060 s
[6]
  AUCinf, geometric mean (%CV): 648.4 (60) ng.h/mL
  AUClast, geometric mean (%CV): 599.4 (53) ng.h/mL
  CL/F, geometric mean (%CV): 15.43 (60) L/h
  Cmax, geometric mean (%CV): 164 ng/mL
  Tmax, median (range): 0.983 h
  Vz/F, geometric mean (%CV): 55.32 (28) L
  t1/2, arithmetic mean±standard deviation: 2.567 h
[7]
  AUCinf, geometric mean (%CV): 892.6 (73) ng.h/mL
  AUClast, geometric mean (%CV): 787.9 (59) ng.h/mL
  CL/F, geometric mean (%CV): 28.04 (73) L/h
  Tmax, median (range): 1.90 h
  Vz/F, geometric mean (%CV): 97.32 (56) L
  t1/2, arithmetic mean±standard deviation: 2.446 h
[8]
  AUCinf, geometric mean (%CV): 1492 (20) ng.h/mL
  AUClast, geometric mean (%CV): 1295 (25) ng.h/mL
  CL/F, geometric mean (%CV): 16.78 (20) L/h
  Cmax, geometric mean (%CV): 244 ng/mL
  Tmax, median (range): 2.17 h
  Vz/F, geometric mean (%CV): 61.33 (20) L
  t1/2, arithmetic mean±standard deviation: 2.540 h
[9]
  AUCinf, individual value(s): 2010 ng·h/mL and 3400 ng·h/mL
  AUClast, geometric mean (%CV): 2510 (25) ng.h/mL
  CL/F, individual value(s): 10.3 L/h and 17.4 L/h
  Cmax, geometric mean (%CV): 388 ng/mL
  Tmax, median (range): 3.64 h
  Vz/F, individual value(s): 55.5 L and 60.0 L
  t1/2, individual value(s): 8600 s and 13500 s
[10]
  AUCinf, geometric mean (%CV): 1614 (48) ng.h/mL
  AUClast, geometric mean (%CV): 1395 (38) ng.h/mL
  CL/F, geometric mean (%CV): 21.70 (48) L/h
  Cmax, geometric mean (%CV): 276 ng/mL
  Tmax, median (range): 2.02 h
  Vz/F, geometric mean (%CV): 86.06 (37) L
  t1/2, arithmetic mean±standard deviation: 2.809 h
[11]
  AUCinf, geometric mean (%CV): 1875 (41) ng.h/mL
  AUClast, geometric mean (%CV): 1976 (49) ng.h/mL
  CL/F, geometric mean (%CV): 26.63 (41) L/h
  Cmax, geometric mean (%CV): 394 ng/mL
  Tmax, median (range): 3.49 h
  Vz/F, geometric mean (%CV): 79.74 (15) L
  t1/2, arithmetic mean±standard deviation: 2.163 h
[12]
  AUCinf, geometric mean (%CV): 884.3 (34) ng.h/mL
  AUClast, geometric mean (%CV): 1034 (43) ng.h/mL
  CL/F, geometric mean (%CV): 28.26 (34) L/h
  Cmax, geometric mean (%CV): 225 ng/mL
  Tmax, median (range): 1.97 h
  Vz/F, geometric mean (%CV): 83.54 (17) L
  t1/2, arithmetic mean±standard deviation: 2.128 h
[13]
  AUCinf, geometric mean (%CV): 1142 (50) ng.h/mL
  AUClast, geometric mean (%CV): 1040 (46) ng.h/mL
  CL/F, geometric mean (%CV): 21.87 (50) L/h
  Cmax, geometric mean (%CV): 228 ng/mL
  Tmax, median (range): 2.52 h
  Vz/F, geometric mean (%CV): 72.18 (37) L
  t1/2, arithmetic mean±standard deviation: 2.428 h
[14]
  AUCinf, geometric mean (%CV): 593.3 (17) ng.h/mL
  AUClast, geometric mean (%CV): 596.8 (33) ng.h/mL
  CL/F, geometric mean (%CV): 42.14 (17) L/h
  Cmax, geometric mean (%CV): 122 ng/mL
  Tmax, median (range): 2.00 h
  Vz/F, geometric mean (%CV): 132.2 (52) L
  t1/2, arithmetic mean±standard deviation: 2.250 h
[15]
  AUClast, geometric mean (%CV): 192.0 (201) ng.h/mL
  Cmax, geometric mean (%CV): 43.5 ng/mL
  Tmax, median (range): 10.0 (5.35–10.2) h
[16]
  AUCtau, geometric mean (%CV): 1351 (45) ng.h/mL
  CL/F, geometric mean (%CV): 18.53 (45) L/h
  Cmax, geometric mean (%CV): 315.5 (43) ng/mL
  Cmin, geometric mean (%CV): 30.23 (119) ng/mL
  Rac (observed accumulation ratio based on AUC), geometric mean (%CV): 1.135 (34)
  Tmax, median (range): 1.94 h
  Vz/F, geometric mean (%CV): 75.77 (43) L
  t1/2, arithmetic mean±standard deviation: 2.765 h
[17]
  AUCtau, individual value(s): 25.3 ng·h/mL
  CL/F, individual value(s): 39.5 L/h
